# Reference: ChEMBL document CHEMBL4706628, “Ligand-based optimization to identify novel 2-aminobenzo[d]thiazole derivatives as potent sEH inhibitors with anti-inflammatory effects” (Eur J Med Chem, 2021)
# What was measured:
# in vitro [1] = conditions: Sprague-Dawley, rat, liver microsomes
# Description: Half life in Sprague-Dawley rat liver microsomes at 10 uM measured up to 60 mins in presence of NADPH regenerating system by HPLC analysis
# Mus musculus [2] = test: Antiinflammatory activity in BALB/c mouse model of carrageenan-induced paw edema assessed as paw edema at 100 mg/kg, ip pretreated for 1 hr followed by carrageenan challenge and measured after 1 hr by caliper method relative to control; type: functional; conditions: time 2 hrs
# in vitro [3] = conditions: Sprague-Dawley, rat, liver microsomes; remark: listed apart in the source
# Description: Stability in Sprague-Dawley rat liver microsomes assessed as parent compound remaining at 10 uM measured after 60 mins in presence of NADPH regenerating system by HPLC analysis
# HepG2 = test: Cytotoxicity against human HepG2 cells assessed as reduction in cell viability measured after 48 hrs by MTT assay; type: cell-based; conditions: HepG2, 48 h
# Mus musculus [4] = test: Antiinflammatory activity in BALB/c mouse model of carrageenan-induced paw edema assessed as paw edema at 100 mg/kg, ip pretreated for 1 hr followed by carrageenan challenge and measured after 4 hrs by caliper method relative to control; type: functional; conditions: time 5 hrs
# Mus musculus [5] = test: Antiinflammatory activity in BALB/c mouse model of carrageenan-induced paw edema assessed as paw thickness at 100 mg/kg, ip pretreated for 1 hr followed by carrageenan challenge and measured after 4 hrs by caliper method (reference value: 3.60 +/- 0.12 millimeter); type: functional; conditions: time 5 hrs
# Mus musculus [6] = test: Antiinflammatory activity in BALB/c mouse model of carrageenan-induced paw edema assessed as paw thickness at 100 mg/kg, ip pretreated for 1 hr followed by carrageenan challenge and measured after 3 hrs by caliper method (reference value: 3.61 +/- 0.36 millimeter); type: functional; conditions: time 4 hrs
# [7] = molecular target: T1, Bifunctional epoxide hydrolase 2 (Homo sapiens) (UniProt P34913); test: Inhibition of recombinant human sEH at 100 nM using PHOME as substrate measured after 15 mins by fluorescence assay relative to control
# T1 sequence (whole entry): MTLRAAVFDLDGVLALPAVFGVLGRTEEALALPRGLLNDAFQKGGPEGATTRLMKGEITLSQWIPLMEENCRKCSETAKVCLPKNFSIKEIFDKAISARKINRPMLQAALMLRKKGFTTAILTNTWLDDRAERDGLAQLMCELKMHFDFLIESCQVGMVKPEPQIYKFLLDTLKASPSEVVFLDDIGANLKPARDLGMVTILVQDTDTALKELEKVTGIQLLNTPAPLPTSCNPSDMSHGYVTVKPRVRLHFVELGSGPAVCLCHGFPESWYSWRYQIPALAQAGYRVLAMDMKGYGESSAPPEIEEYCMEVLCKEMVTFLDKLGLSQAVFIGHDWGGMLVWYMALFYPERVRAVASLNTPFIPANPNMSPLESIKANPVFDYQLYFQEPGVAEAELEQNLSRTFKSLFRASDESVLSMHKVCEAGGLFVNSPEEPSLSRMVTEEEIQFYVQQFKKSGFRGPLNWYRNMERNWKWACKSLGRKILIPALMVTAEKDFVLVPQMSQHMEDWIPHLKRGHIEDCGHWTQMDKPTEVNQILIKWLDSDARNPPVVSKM
# Mus musculus [8] = test: Antiinflammatory activity in BALB/c mouse model of carrageenan-induced paw edema assessed as paw edema at 100 mg/kg, ip pretreated for 1 hr followed by carrageenan challenge and measured after 3 hrs by caliper method relative to control; type: functional; conditions: time 4 hrs
# Mus musculus [9] = test: Antiinflammatory activity in BALB/c mouse model of carrageenan-induced paw edema assessed as paw edema at 100 mg/kg, ip pretreated for 1 hr followed by carrageenan challenge and measured after 2 hrs by caliper method relative to control; type: functional; conditions: time 3 hrs
# Mus musculus [10] = test: Antiinflammatory activity in BALB/c mouse model of carrageenan-induced paw edema assessed as paw thickness at 100 mg/kg, ip pretreated for 1 hr followed by carrageenan challenge and measured after 1 hr by caliper method (reference value: 3.51 +/- 0.19 millimeter); type: functional; conditions: time 2 hrs
# in vitro [11] = conditions: Sprague-Dawley, rat, liver microsomes; remark: listed apart in the source
# in vitro [12] = conditions: Sprague-Dawley, rat, liver microsomes; remark: listed apart in the source
# in vitro [13] = conditions: Sprague-Dawley, rat, liver microsomes; remark: listed apart in the source
# Description: Stability in Sprague-Dawley rat liver microsomes assessed as parent compound remaining at 10 uM measured after 60 mins in absence of NADPH regenerating system by HPLC analysis
# [14] = Solubility of compound in pH 7.4 PBS buffer measured after 2 hrs by turbidimetric assay; type: physicochemical
# Mus musculus [15] = test: Antiinflammatory activity in BALB/c mouse model of carrageenan-induced paw edema assessed as paw thickness at 100 mg/kg, ip pretreated for 1 hr followed by carrageenan challenge and measured after 2 hrs by caliper method (reference value: 3.56 +/- 0.29 millimeter); type: functional; conditions: time 3 hrs
# [16] = molecular target: T2, Bifunctional epoxide hydrolase 2 (Homo sapiens, UniProt P34913); test: Mixed-type inhibition of recombinant human sEH using PHOME as substrate measured after 15 mins by fluorescence based Lineweaver-burk plot analysis
# T2 sequence (P34913 whole entry): T1 sequence (whole entry)
# [17] = molecular target: T1, Bifunctional epoxide hydrolase 2 (Homo sapiens); test: Mixed-type inhibition of recombinant human sEH assessed as inhibitor dissociation constant using PHOME as substrate measured after 15 mins by fluorescence based Lineweaver-burk plot analysis
# [18] = molecular target: T2, Bifunctional epoxide hydrolase 2; test: Inhibition of recombinant human sEH using PHOME as substrate measured after 15 mins by fluorescence assay
# [19] = molecular target: T1, Bifunctional epoxide hydrolase 2 (Homo sapiens); test: Potency index, ratio of t-AUCB IC50 to test compound IC50 for recombinant human sEH
Ratio IC50 [19],SMILES,"half-life at 1 h, 10 µM (in vitro [1]) [min]",Activity (Mus musculus [2]) [%],"remaining at 1 h, 10 µM (in vitro [3]) [%]",IC50 (HepG2) [nM],Activity (Mus musculus [4]) [%],Activity (Mus musculus [5]) [mm],Activity (Mus musculus [6]) [mm],inhibition [7] [%],Activity (Mus musculus [8]) [%],Activity (Mus musculus [9]) [%],Activity (Mus musculus [10]) [mm],"microsomal CLint at 1 h, 10 µM (in vitro [11]) [µL/min/mg]","microsomal CLint at 1 h, 10 µM (in vitro [12]) [µL/min/mg]","remaining at 1 h, 10 µM (in vitro [13]) [%]",solubility kinetic at 2 h [14] [µg/mL],Activity (Mus musculus [15]) [mm],Ki [16] [nM],Kdiss [17] [nM],IC50 [18] [nM]
,Nc1nc2ccc(N(CCN3CCOCC3)C(=O)Nc3ccc(F)c(Br)c3)cc2s1,44.7,30.86,36.2,> 25000,27.12,3.06,3.06,90.5,27.39,31.49,3.15,55.8,31,85,68,3.16,,,
,O=C(Cc1ccccc1)Nc1nc2ccc(N(CCN3CCOCC3)C(=O)Nc3ccc(Cl)cc3)cc2s1,1.7,21.56,0,> 25000,20.32,3.3,3.19,84.7,16.48,17.58,3.33,1480,820,116,61,3.22,4.77,23.1,0.082
,Nc1nc2ccc(N(CCN3CCOCC3)C(=O)Nc3ccc(Cl)cc3)cc2s1,34.7,20.99,30.1,> 25000,23.39,3.17,3.13,89.1,21.64,19.06,3.11,71.9,40,99.5,39,3.06,,,2.8
67,O=C(Nc1ccc(Cl)cc1)Nc1nc2ccc(N(CCN3CCOCC3)C(=O)Nc3ccc(Cl)cc3)cc2s1,,,,,,,,90.2,,,,,,,30,,,,0.1
,O=C(NC12CC3CC(CC(C3)C1)C2)N[C@H]1CC[C@H](Oc2ccc(C(=O)O)cc2)CC1,,25.01,,,24.71,3.28,3.29,,24.98,22.61,3.3,,,,,3.23,,,
